Measured values: patent US20100184946A1, “Preparation of Fine Particles” (priority 2007, published 2010)

Test: Particle form by X-ray powder diffraction (XRPD)
Format: physicochemical
Conditions: starting material before the process; product after freeze drying
Description: The physical form of the paclitaxel particles was measured using X-ray powder diffraction method (“XRPD”) before the process (i.e. the starting material) and again after the product of the process had been freeze dried.

physical form (XRPD): crystal structure ordering
SMILES: CC(=O)O[C@H]1C(=O)[C@@]2(C)[C@H]([C@H](OC(=O)c3ccccc3)[C@]3(O)C[C@H](OC(=O)[C@H](O)[C@@H](NC(=O)c4ccccc4)c4ccccc4)C(C)=C1C3(C)C)[C@]1(OC(C)=O)CO[C@@H]1C[C@@H]2O [paclitaxel]
